The results in this text go back to article PMC2995015 (Biochemistry, 2010).

Common to all, as to format: cell-based
In assay [1] the target is T1, PMAT mutant Y112W (Homo sapiens, UniProt Q7RTT9, Y112W).
T1 sequence (Q7RTT9 1-530 Y112W): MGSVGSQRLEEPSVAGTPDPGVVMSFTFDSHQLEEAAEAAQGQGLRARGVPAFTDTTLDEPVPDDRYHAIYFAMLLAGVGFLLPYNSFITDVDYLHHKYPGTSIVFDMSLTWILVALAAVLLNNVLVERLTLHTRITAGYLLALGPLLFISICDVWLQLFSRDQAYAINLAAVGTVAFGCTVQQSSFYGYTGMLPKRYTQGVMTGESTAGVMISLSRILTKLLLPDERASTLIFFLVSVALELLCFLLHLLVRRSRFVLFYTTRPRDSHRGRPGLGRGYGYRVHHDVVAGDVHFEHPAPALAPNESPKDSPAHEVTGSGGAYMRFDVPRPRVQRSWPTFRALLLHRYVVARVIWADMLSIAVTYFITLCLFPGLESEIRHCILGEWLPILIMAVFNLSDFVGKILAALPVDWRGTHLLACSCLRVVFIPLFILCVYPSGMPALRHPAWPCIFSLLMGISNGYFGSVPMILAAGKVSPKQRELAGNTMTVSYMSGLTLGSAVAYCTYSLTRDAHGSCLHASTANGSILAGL
Description: Concentration-dependent transport kinetics in stably transfected MDCK cells. The note with it: for Km / Vmax: Y112W, MDCK cells, 1 min, 37°C.

The target in another assay is T2, PMAT wild type (Homo sapiens, UniProt Q7RTT9).
T2 sequence (Q7RTT9 1-530): T1 sequence (Q7RTT9 1-530 Y112W) with W112Y
The assay is described as above. As to conditions: 1 min, 37°C.

Assay [2] concerns the target T3, PMAT mutant Y85W (Homo sapiens, UniProt Q7RTT9, Y85W).
T3 sequence (Q7RTT9 1-530 Y85W): T1 sequence (Q7RTT9 1-530 Y112W) with Y85W, W112Y
The description is as above. The note with it: for Km / Vmax: Y85W, MDCK cells, 1 min, 37°C.

In assay [3] the target is T1, PMAT mutant Y112W. Description: Single-concentration 3H-substrate uptake in stably transfected MDCK cells. The note with it: MPP+ 1 μM, 5-HT 10 μM, dopamine 10 μM, 4 min, 37°C.
In assay [4] the target is T3, PMAT mutant Y85W. The description is as above. As to conditions: MPP+ 1 μM, 5-HT 10 μM, dopamine 10 μM, 4 min, 37°C.
Another assay has as its target T4, PMAT mutant Y112S (Homo sapiens, UniProt Q7RTT9, Y112S).
T4 sequence (Q7RTT9 1-530 Y112S): T1 sequence (Q7RTT9 1-530 Y112W) with W112S
Description: Uptake of uridine in the presence of NBMPR in stably transfected MDCK cells. As to conditions: 0.5 μM NBMPR, vs vector-transfected cells.

Assay [5] addresses T3, PMAT mutant Y85W. The description is as above. The note with it: 0.5 μM NBMPR, vs vector-transfected cells.
The next assay has as its target T5, WT PMAT (Homo sapiens, UniProt Q7RTT9).
T5 sequence (Q7RTT9 1-530): T1 sequence (Q7RTT9 1-530 Y112W) with W112Y
Described as above. As to conditions: 0.5 μM NBMPR, vs vector-transfected cells.

The next assay has as its target T6, PMAT mutant Y112A (Homo sapiens, UniProt Q7RTT9, Y112A).
T6 sequence (Q7RTT9 1-530 Y112A): T1 sequence (Q7RTT9 1-530 Y112W) with W112A
The description is as above. The note with it: 0.5 μM NBMPR, vs vector-transfected cells.

In assay [6] the target is T3, PMAT mutant Y85W. Description: Uridine inhibition of organic cation transport in stably transfected MDCK cells. The note with it: uridine 1 mM; data not shown.

Each structure is given as a SMILES string. Numbering of substitutions follows the chain as printed.

In general, Km refers to the substrate concentration at which the rate is half of its maximum. With `NCCc1c[nH]c2ccc(O)cc12` [Serotonin, serotonin], the Km on PMAT mutant Y112W [1] was 104 ± 13.2 µM; at PMAT wild type, 168 ± 18.9 µM; on PMAT mutant Y85W [2] it was 308 ± 50.8 µM. Besides, at PMAT mutant Y112W [1], the Vmax was 1.04 ± 0.13 nmol/mg protein/min.
Regarding `C[n+]1ccc(-c2ccccc2)cc1` [MPP^+, 1-methyl-4-phenylpyridinium], the “reduction in Vmax” value on PMAT mutant Y112W [1] (Y112W vs WT PMAT) worked out at 2.6 fold. Besides, the Km was found to be 147 ± 36.3 µM on PMAT mutant Y112W [1], 42.2 ± 5 µM on PMAT wild type and 31.1 ± 6.9 µM on PMAT mutant Y85W [2]. Besides, the Vmax at PMAT mutant Y112W [1] is recorded as 0.23 ± 0.02 nmol/mg protein/min; at PMAT wild type, 0.60 ± 0.04 nmol/mg protein/min; on PMAT mutant Y85W [2], 0.94 ± 0.10 nmol/mg protein/min. Also, the “activity retained compared to cells expressing WT PMAT” value on PMAT mutant Y112W [3] is given as “less than 20%”. Also, the “increase in maximal velocity (Vmax)” value on PMAT mutant Y85W [2] (Y85W vs WT PMAT) turned out to be 1.6 fold. Further, the “increase in transport efficiency (Vmax/Km)” value on PMAT mutant Y85W [2] (Y85W vs WT PMAT) is on record as “about 2 fold”. The “transport activity compared to WT PMAT” value at PMAT mutant Y85W [4] was “significantly higher transport activity”.
On to `NCCc1ccc(O)c(O)c1` [Dopamine, dopamine], for which, on PMAT mutant Y112W [1] (Y112W vs WT PMAT), the “transport efficiencies, % of the WT PMAT” value is reported as 60–70%. The figures for the Km at PMAT mutant Y112W [1], at PMAT wild type and at PMAT mutant Y85W [2] were 88 ± 6.8 µM, 244 ± 16.2 µM and 243 ± 30.4 µM, respectively. Also, the figures for the Vmax at PMAT mutant Y112W [1], on PMAT wild type and on PMAT mutant Y85W [2] were 1.03 ± 0.09 nmol/mg protein/min, 4.12 ± 0.35 nmol/mg protein/min and 3.87 ± 0.14 nmol/mg protein/min, respectively. Also, the “activity retained compared to cells expressing WT PMAT” value on PMAT mutant Y112W [3] is reported as 50–60%.
As to `O=c1ccn([C@@H]2O[C@H](CO)[C@@H](O)[C@H]2O)c(=O)[nH]1` [uridine], the “transport activity for uridine” value on PMAT mutant Y112S, at PMAT mutant Y85W [5], on WT PMAT and at PMAT mutant Y112A was “no statistically significant transport activity” in each case. Moreover, the “inhibitory effect on Y85W-mediated organic cations transport” value at PMAT mutant Y85W [6] is given as “no significant inhibitory effect”.
